Test results from paper PMC2586337 (Biochemistry, 2008).
Like-named read-outs stand apart in the source and are kept apart here. Values belong to the molecule of their own block, whether it stands above or below them.

Experiments:
primase (UL5/UL8/UL52) [1] = molecular target: T1, primase (UL5/UL8/UL52) (Human herpesvirus 1, UniProt P10236); test: Inhibition of NTP polymerization onto primer:templates; type: biochemical; conditions: for type of inhibition with respect to GTP incorporation: data not shown
T1 sequence (P10189 whole entry): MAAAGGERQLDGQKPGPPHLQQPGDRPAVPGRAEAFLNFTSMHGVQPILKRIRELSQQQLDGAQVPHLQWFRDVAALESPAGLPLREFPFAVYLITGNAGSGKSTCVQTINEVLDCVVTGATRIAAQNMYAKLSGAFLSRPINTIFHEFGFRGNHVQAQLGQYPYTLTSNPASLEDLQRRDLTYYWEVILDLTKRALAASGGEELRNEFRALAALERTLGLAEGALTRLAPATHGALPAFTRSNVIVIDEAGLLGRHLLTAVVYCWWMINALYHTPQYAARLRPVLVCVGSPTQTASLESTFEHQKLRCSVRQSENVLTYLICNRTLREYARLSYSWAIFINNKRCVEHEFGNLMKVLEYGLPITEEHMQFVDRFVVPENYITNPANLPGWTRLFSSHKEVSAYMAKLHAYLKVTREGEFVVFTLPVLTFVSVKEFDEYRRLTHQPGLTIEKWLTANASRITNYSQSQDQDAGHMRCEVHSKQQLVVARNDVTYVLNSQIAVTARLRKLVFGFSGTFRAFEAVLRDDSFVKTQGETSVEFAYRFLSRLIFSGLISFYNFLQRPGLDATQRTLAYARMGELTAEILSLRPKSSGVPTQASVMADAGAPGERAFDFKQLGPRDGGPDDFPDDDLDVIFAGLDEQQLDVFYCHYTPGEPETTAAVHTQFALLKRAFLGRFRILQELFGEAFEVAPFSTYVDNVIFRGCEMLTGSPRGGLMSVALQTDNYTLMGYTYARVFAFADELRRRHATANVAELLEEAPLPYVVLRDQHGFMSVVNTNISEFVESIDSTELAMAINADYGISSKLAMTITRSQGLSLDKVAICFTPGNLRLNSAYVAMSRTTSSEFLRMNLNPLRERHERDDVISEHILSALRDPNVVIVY
T1 sequence (P10192 whole entry, further chain): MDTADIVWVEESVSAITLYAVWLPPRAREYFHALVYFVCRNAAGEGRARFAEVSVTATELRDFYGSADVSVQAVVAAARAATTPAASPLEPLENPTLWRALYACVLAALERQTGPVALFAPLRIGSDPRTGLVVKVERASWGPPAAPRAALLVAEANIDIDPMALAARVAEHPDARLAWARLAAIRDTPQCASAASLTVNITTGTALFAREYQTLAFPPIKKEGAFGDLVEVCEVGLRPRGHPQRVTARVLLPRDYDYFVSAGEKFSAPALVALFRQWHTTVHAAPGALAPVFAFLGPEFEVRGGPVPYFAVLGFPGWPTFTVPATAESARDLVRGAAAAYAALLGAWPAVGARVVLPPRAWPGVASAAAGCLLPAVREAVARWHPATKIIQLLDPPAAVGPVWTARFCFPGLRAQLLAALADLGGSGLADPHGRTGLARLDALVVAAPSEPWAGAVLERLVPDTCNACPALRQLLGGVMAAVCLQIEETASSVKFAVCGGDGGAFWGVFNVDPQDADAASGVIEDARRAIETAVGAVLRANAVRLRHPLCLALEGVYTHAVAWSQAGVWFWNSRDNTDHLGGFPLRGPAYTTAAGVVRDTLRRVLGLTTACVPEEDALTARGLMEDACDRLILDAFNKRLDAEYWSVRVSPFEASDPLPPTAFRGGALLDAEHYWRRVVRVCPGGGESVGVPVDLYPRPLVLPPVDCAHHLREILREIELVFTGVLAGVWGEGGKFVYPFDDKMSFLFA
T1 sequence (P10236 whole entry): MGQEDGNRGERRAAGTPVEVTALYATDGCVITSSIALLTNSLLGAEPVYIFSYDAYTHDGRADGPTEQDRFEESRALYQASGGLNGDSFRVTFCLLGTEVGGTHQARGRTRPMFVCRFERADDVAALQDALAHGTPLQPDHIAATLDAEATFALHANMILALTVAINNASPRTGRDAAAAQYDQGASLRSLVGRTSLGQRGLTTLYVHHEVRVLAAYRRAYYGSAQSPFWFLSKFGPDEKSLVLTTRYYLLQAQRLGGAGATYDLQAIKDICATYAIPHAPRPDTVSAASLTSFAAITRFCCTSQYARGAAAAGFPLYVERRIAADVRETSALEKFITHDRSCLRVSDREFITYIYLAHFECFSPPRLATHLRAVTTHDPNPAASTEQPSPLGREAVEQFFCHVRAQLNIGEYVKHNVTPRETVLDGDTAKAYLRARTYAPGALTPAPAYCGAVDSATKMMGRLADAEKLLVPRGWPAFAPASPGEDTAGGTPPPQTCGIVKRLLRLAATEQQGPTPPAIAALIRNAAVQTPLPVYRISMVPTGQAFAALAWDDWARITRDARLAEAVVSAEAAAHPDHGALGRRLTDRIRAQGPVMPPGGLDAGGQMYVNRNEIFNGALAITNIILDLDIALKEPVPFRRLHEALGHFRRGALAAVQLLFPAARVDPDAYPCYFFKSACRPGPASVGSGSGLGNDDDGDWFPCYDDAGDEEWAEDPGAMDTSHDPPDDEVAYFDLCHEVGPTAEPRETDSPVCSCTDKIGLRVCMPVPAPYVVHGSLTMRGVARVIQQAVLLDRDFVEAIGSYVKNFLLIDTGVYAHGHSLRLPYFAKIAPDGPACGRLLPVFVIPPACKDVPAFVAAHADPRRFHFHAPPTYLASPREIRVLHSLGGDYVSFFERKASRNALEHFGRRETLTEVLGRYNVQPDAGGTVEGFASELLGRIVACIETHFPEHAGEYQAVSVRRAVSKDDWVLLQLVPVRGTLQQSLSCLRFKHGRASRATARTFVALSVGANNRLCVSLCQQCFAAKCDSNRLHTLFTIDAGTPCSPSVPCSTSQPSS

primase (UL5/UL8/UL52) [2] = molecular target: T1, primase (UL5/UL8/UL52); test: Primer synthesis on d; type: biochemical, herpes simplex virus I; conditions: for primers elongated after incorporation of the nucleotide: 800 μM ATP; for primers elongated after incorporation of the nucleotide / incorporation by primase opposite template dG (new products of altered mobility): GTP; for incorporation by primase opposite template dG (new products of altered mobility): template d(GTCT)15, ATP, 800 μM analogue; for chain termination after incorporation: template d(GTCT)15, ATP and GTP
primase (UL5/UL8/UL52) [3] = molecular target: T1, primase (UL5/UL8/UL52); test: Polymerization of nucleoside triphosphates onto a RNA primer:DNA template; type: biochemical, herpes simplex virus I; conditions: for VMax: primer:template DNAT, DNAC or DNAG; for Km: primer:template with next correct NTP: DNAT (ATP), DNAC (GTP), DNAG (CTP)
primase (UL5/UL8/UL52) [4] = molecular target: T1, primase (UL5/UL8/UL52); test: Incorporation of nucleotides as the second nucleotide of the primer; type: biochemical, herpes simplex virus I
primase (UL5/UL8/UL52) [5] = molecular target: T1, primase (UL5/UL8/UL52); test: Incorporation of nucleotides as the 5′-terminal nucleotide of the primer; type: biochemical, herpes simplex virus I
primase (UL5/UL8/UL52) [6] = molecular target: T1, primase (UL5/UL8/UL52); type: biochemical, herpes simplex virus I
[7] = inhibition of ATP polymerization, ATP (100 μM), DNAT
[8] = inhibition of GTP polymerization, 800 μM GTP, DNAC
[9] = IC50, inhibition of GTP polymerization, 800 μM GTP, DNAC
[10] = inhibition of GTP polymerization, GTP (100 μM), DNAC

IC50 (primase (UL5/UL8/UL52) [1]; [7]): > 10000 µM
Structure (SMILES): Nc1ncnc2c1ncn2[C@@H]1O[C@H](COP(=O)(O)OP(=O)(O)O)[C@@H](O)[C@H]1O [ADP]

Structure (SMILES): Nc1ccn([C@@H]2O[C@H](COP(=O)(O)OP(=O)(O)OP(=O)(O)O)[C@@H](O)[C@H]2O)c(=O)n1 [CTP]
primers elongated after incorporation of the nucleotide (primase (UL5/UL8/UL52) [2]; template d(GTCT)15): 75%
incorporation by primase opposite template dG (new products of altered mobility) (primase (UL5/UL8/UL52) [2]): readily incorporates
VMax (primase (UL5/UL8/UL52) [3]): 1.2 ± 0.16 pmol/h
Km (primase (UL5/UL8/UL52) [3]): 1100 ± 280 µM

Structure (SMILES): Nc1ccn(C2SC(COP(=O)(O)OP(=O)(O)OP(=O)(O)O)C(O)C2O)c(=O)n1 (centres unmarked) [SaraCTP, 4′-thio-arabinofuranosylcytosine triphosphate]
chain termination after incorporation (primase (UL5/UL8/UL52) [2]): very strong chain termination
incorporation by primase opposite template dG (new products of altered mobility) (primase (UL5/UL8/UL52) [2]): polymerized

Structure (SMILES): Nc1nc2c(ncn2[C@@H]2O[C@H](COP(=O)(O)OP(=O)(O)OP(=O)(O)O)[C@@H](O)[C@H]2O)c(=O)[nH]1 [GTP]
VMax (primase (UL5/UL8/UL52) [4]): 9.5 ± 1.3 pmol/min
VMax (primase (UL5/UL8/UL52) [5]): 1.1 ± 0.27 pmol/min
VMax (primase (UL5/UL8/UL52) [3]): 0.060 ± 0.012 pmol/h
Km (primase (UL5/UL8/UL52) [3]): 230 ± 170 µM

Structure (SMILES): Nc1nc2c(ncn2[C@@H]2O[C@H](COP(=O)(O)OP(=O)(O)OP(=O)(O)O)[C@@H](O)[C@@H]2O)c(=O)[nH]1 [AraGTP, arabinofuranosylguanine triphosphate]
VMax (primase (UL5/UL8/UL52) [4]): 4.1 ± 0.3 pmol/min
VMax (primase (UL5/UL8/UL52) [3]): 0.044 ± 0.006 pmol/h
Km (primase (UL5/UL8/UL52) [3]): 300 ± 140 µM

IC50 (primase (UL5/UL8/UL52) [1]; [7]): > 10000 µM
Structure (SMILES): Nc1ncnc2c1ncn2[C@@H]1O[C@H](COP(=O)(O)O)[C@@H](O)[C@H]1O [AMP]

Structure (SMILES): Nc1nc2c(ncn2[C@H]2CC[C@@H](COP(=O)(O)OP(=O)(O)OP(=O)(O)O)O2)c(=O)[nH]1 [ddGTP]
type of inhibition with respect to GTP incorporation (primase (UL5/UL8/UL52) [1]): competitive
IC50 (primase (UL5/UL8/UL52) [1]; [8]): 1100 ± 180 µM
inhibition of primase activity (primase (UL5/UL8/UL52) [6]; template C20GCCCTA15, increasing ddGTP up to 2 mM): up to 90%
incorporation by primase as third and later nucleotide (new products) (primase (UL5/UL8/UL52) [6]; template C20GCCCTA15 for GTP analogues, ATP, [α-32P]GTP, partly data not shown): no new products

Structure (SMILES): Nc1ccn([C@@H]2O[C@H](COP(=O)(O)OP(=O)(O)OP(=O)(O)O)[C@@H](O)[C@@H]2O)c(=O)n1 [AraCTP, arabinofuranosylcytosine triphosphate]
chain termination after incorporation (primase (UL5/UL8/UL52) [2]): very strong chain termination
incorporation by primase opposite template dG (new products of altered mobility) (primase (UL5/UL8/UL52) [2]): polymerized
VMax (primase (UL5/UL8/UL52) [3]): 0.30 ± 0.05 pmol/h
Km (primase (UL5/UL8/UL52) [3]): 360 ± 190 µM

Structure (SMILES): Nc1ncnc2c1ncn2[C@@H]1O[C@H](COP(=O)(O)OP(=O)(O)OP(=O)(O)O)[C@@H](O)[C@H]1O [ATP]
VMax (primase (UL5/UL8/UL52) [4]): 5.1 ± 1.8 pmol/min
VMax (primase (UL5/UL8/UL52) [5]): 14 ± 1.7 pmol/min
VMax (primase (UL5/UL8/UL52) [3]): 0.23 ± 0.09 pmol/h
Km (primase (UL5/UL8/UL52) [3]): 1700 ± 960 µM

IC50 (primase (UL5/UL8/UL52) [1]): 3200 ± 570 µM
Structure (SMILES): Nc1nc2c(ncn2COCCOP(=O)(O)OP(=O)(O)OP(=O)(O)O)c(=O)[nH]1 [ACVTP, acyclovir triphosphate]

Structure (SMILES): Nc1ncnc2c1ncn2[C@H]1CC[C@@H](COP(=O)(O)OP(=O)(O)OP(=O)(O)O)O1 [ddATP]
IC50 (primase (UL5/UL8/UL52) [1]; IC50, inhibition of ATP polymerization, 800 μM ATP, DNAT): 1700 ± 110 µM
IC50 (primase (UL5/UL8/UL52) [1]; [9]): 2400 ± 900 µM

Structure (SMILES): Nc1nc2c(ncn2[C@H]2C[C@H](O)[C@@H](COP(=O)(O)OP(=O)(O)OP(=O)(O)O)O2)c(=O)[nH]1 [2′-dGTP]
VMax (primase (UL5/UL8/UL52) [4]): 5.3 ± 0.8 pmol/min
VMax (primase (UL5/UL8/UL52) [3]): 0.18 ± 0.02 pmol/h
Km (primase (UL5/UL8/UL52) [3]): 130 ± 80 µM

Structure (SMILES): Nc1ccn([C@H]2CC[C@@H](COP(=O)(O)OP(=O)(O)OP(=O)(O)O)O2)c(=O)n1 [ddCTP]
IC50 (primase (UL5/UL8/UL52) [1]; [9]): 800 ± 120 µM
incorporation by primase opposite template dG (new products of altered mobility) (primase (UL5/UL8/UL52) [2]): does not readily incorporate
inhibition of primase (primase (UL5/UL8/UL52) [2]; template d(GTCT)15, increased ddCTP concentration, data not shown): > 90%

Structure (SMILES): Nc1ncnc2c1ncn2[C@H]1C[C@H](O)[C@@H](COP(=O)(O)OP(=O)(O)OP(=O)(O)O)O1 [2′-dATP]
VMax (primase (UL5/UL8/UL52) [4]): >10 pmol/min
VMax (primase (UL5/UL8/UL52) [5]): 20 ± 1.1 pmol/min
VMax (primase (UL5/UL8/UL52) [3]): 0.024 ± 0.06 pmol/h
Km (primase (UL5/UL8/UL52) [3]): 770 ± 370 µM

IC50 (primase (UL5/UL8/UL52) [1]; [10]): 3800 ± 540 µM
Structure (SMILES): Nc1nc2c(ncn2[C@@H]2O[C@H](COP(=O)(O)O)[C@@H](O)[C@H]2O)c(=O)[nH]1 [GMP]

type of inhibition with respect to GTP incorporation (primase (UL5/UL8/UL52) [1]): competitive
IC50 (primase (UL5/UL8/UL52) [1]; [10]): 4400 ± 650 µM
Structure (SMILES): Nc1nc2c(ncn2[C@@H]2O[C@H](COP(=O)(O)OP(=O)(O)O)[C@@H](O)[C@H]2O)c(=O)[nH]1 [GDP]

Structure (SMILES): Nc1ncnc2c1ncn2[C@@H]1O[C@H](COP(=O)(O)OP(=O)(O)OP(=O)(O)O)[C@@H](O)[C@@H]1O [AraATP, arabionfuranosyladenine triphosphate]
VMax (primase (UL5/UL8/UL52) [4]): 1.0 ± 0.16 pmol/min
VMax (primase (UL5/UL8/UL52) [5]): 0.04 ± 0.005 pmol/min
VMax (primase (UL5/UL8/UL52) [3]): 0.026 ± 0.004 pmol/h
Km (primase (UL5/UL8/UL52) [3]): 190 ± 110 µM

Structure (SMILES): Nc1ncnc2c1ncn2[C@@H]1O[C@H](COP(=O)(O)OP(=O)(O)OP(=O)(O)O)C[C@H]1O [3′-dATP, cordycepin triphosphate]
IC50 (primase (UL5/UL8/UL52) [1]; inhibition of ATP polymerization, 800 μM ATP, DNAT): 1100 ± 170 µM

IC50 (primase (UL5/UL8/UL52) [1]; [8]): 3400 ± 880 µM
Structure (SMILES): Nc1nc(O)c2ncn(COC(CO)COP(=O)(O)OP(=O)(O)OP(=O)(O)O)c2n1 (centres unmarked) [GCVTP, ganciclovir triphosphate]

Structure (SMILES): Nc1ccn([C@H]2C[C@H](O)[C@@H](COP(=O)(O)OP(=O)(O)OP(=O)(O)O)O2)c(=O)n1 [2′-dCTP]
incorporation by primase opposite template dG (new products of altered mobility) (primase (UL5/UL8/UL52) [2]): readily incorporates
VMax (primase (UL5/UL8/UL52) [3]): 0.16 ± 0.036 pmol/h
Km (primase (UL5/UL8/UL52) [3]): 640 ± 360 µM

Structure (SMILES): Nc1ccn([C@@H]2O[C@H](COP(=O)(O)OP(=O)(O)OP(=O)(O)O)[C@@H](O)C2(F)F)c(=O)n1 [dFdCTP, 2′,2′-Difluoro-2′-deoxycytidine triphosphate]
primers elongated after incorporation of the nucleotide (primase (UL5/UL8/UL52) [2]; template d(GTCT)15): 11%
inhibition of primase (primase (UL5/UL8/UL52) [2]; 800 μM, template d(GTCT)15): relatively strong inhibition
chain termination after incorporation (primase (UL5/UL8/UL52) [2]): strong chain termination
incorporation by primase opposite template dG (new products of altered mobility) (primase (UL5/UL8/UL52) [2]): polymerized
